“Also recorded” adds a separate entry of the source.
Columns and labels:
[1] = Absorbance spectra of retinoid HPLC peaks; assay type: physicochemical; conditions: predominant retinoid species of zebrafish retina extracts, reduced with sodium borohydride
Source text: (§1) FIG. 1A, FIG. 1B, FIG. 1C, FIG. 1D, FIG. 1E, FIG. 1F, FIG. 1G, FIG. 1H, FIG. 1I, FIG. 1J and FIG. 1K depict images and graphs showing that diverse species employ a vitamin A1 to vitamin A2 switch to red-shift the spectral sensitivity of their photoreceptors. (FIG. 1A) Depicts the conversion of all-trans retinol (vitamin A1) into all-trans 3,4-didehydroretinol (vitamin A2). (FIG. 1B, FIG. 1C, FIG. 1D) Depict several species that switch between the use of vitamin A1 and vitamin A2 for vision at different stages of their life cycle. (FIG. 1B) Sea lamprey; (FIG. 1C) Coho salmon; and (FIG. 1D) Northern leopard frog. (FIG. 1E, FIG. 1F, FIG. 1G, FIG. 1H) depict graphs showing that thyroid hormone treatment of adult zebrafish induces quantitative conversion of retinol into 3,4-didehydroretinol. Adult zebrafish were treated with 300 μg/liter thyroid hormone (L-thyroxine) in their water for three weeks. The retinas were then harvested, and retinoid extracts were reduced with sodium borohydride and analyzed by HPLC. (FIG. 1E) Depicts the position of peak #1 in control zebrafish. (FIG. 1F) Depicts the position of peak #2 in TH-treated zebrafish. […] Note that only vitamin A1 and its derivatives (the retinal form has been reduced to the alcohol form) are detected in the ventral RPE whereas both vitamin A1 and vitamin A2 are present in nearly equal proportions in the dorsal RPE. […]

[2] = molecular target: T1, archaerhodopsin proton pump, AR-3 (Halorubrum sodomense, UniProt P96787); conditions: cited from earlier work; for wavelength of half-maximal absorption on the red slope of the curve: AR-3 expressed in E. coli, chromophore as labelled
T1 construct: host or cells: E. coli
T1 sequence (P96787 7-258): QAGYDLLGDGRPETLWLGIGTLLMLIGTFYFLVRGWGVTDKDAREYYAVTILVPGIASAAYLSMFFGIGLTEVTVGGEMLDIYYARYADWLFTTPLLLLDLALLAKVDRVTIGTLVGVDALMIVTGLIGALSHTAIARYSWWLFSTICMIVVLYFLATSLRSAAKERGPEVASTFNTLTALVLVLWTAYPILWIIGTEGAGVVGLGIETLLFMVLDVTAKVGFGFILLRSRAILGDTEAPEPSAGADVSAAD

optogenetic actuators = conditions: replacing retinal with 3,4-didehydroretinal, in vitro; cited from earlier work
adult zebrafish = experiment: Thyroid hormone treatment of zebrafish, retinoid content of retinas by HPLC; assay type: in vivo
Source text: as §1

Cyp27c1 transcript = experiment: RNA-seq expression profiling of RPE from thyroid hormone-treated zebrafish vs vehicle-treated controls; assay type: in vivo; conditions: zebrafish treated 3 weeks with thyroid hormone vs vehicle-treated controls
Source text: FIG. 2A and FIG. 2B depict the results of RNA-seq-based expression profiling of zebrafish and bullfrog retinal pigment epithelium (RPE). (FIG. 2A) RNA-seq results comparing the expression levels of individual transcripts (shown as black circles) from RPE derived from zebrafish treated for 3 weeks with thyroid hormone and vehicle-treated controls. The location of the Cyp27c1 transcript is circled in red. (FIG. 2B) RNA-seq results comparing the expression levels of individual transcripts (shown as black circles) from dorsal and ventral bullfrog RPE. The location of the Cyp27c1 transcript is circled in red.
It has long been postulated that the conversion of retinal into 3,4-dehydroretinal in migratory fish is mediated by a ‘terminal ring dehydrogenase’^8. […] To identify the transcript encoding this enzyme, we carried out transcriptome profiling of thyroid hormone-treated fish and compared them to vehicle-treated controls. We hypothesized that the enzyme was likely to be expressed in one of three tissues: retinal pigment epithelium (which lies immediately adjacent to photoreceptors and is a known source of retinoids), retina or liver. We obtained RNA-seq data for RPE and identified an excellent candidate transcript, flj13639. This transcript encodes an ‘orphan’ member of the cytochrome P450 family of monooxygenases, Cyp27c1 (FIG. 2A). […]

Opn1mw4 = experiment: RNA-seq expression profiling of RPE samples from thyroid hormone-treated zebrafish (photoreceptor transcripts); assay type: in vivo; conditions: thyroid hormone-treated 'RPE' samples vs controls
Source text: We therefore analyzed a range of photoreceptor gene transcripts in our thyroid hormone-treated ‘RPE’ and controls, and found similar levels of photoreceptor contamination between the two samples.

red single cones = experiment: Suction electrode recordings of red single cones from wild-type and cyp27c1 mutant fish; assay type: in vivo; conditions: cyp27c1 mutant zebrafish after thyroid hormone treatment
Source text: FIG. 11A and FIG. 11B depict graphs presenting suction electrode recordings of red single cones from wild-type and Cyp27c1 mutant fish. […] (FIG. 11A) Untreated wild-type and mutant zebrafish have similar sensitivity.
To continue to probe the effects of Cyp27c1, we generated cyp27c1 null mutant zebrafish. […] We then utilized the mutant zebrafish to identify their ability to covert retinol (A1) to 3,4-didehydroretinol (A2). […] Suction electrode recordings of red single cones from wild-type and cyp27c1 mutant fish were performed.

HEK293 cells = experiment: Cyp27c1 expression in HEK293 cells incubated with retinol, retinoids by HPLC; assay type: cell-based, human; conditions: transfected HEK293 cells incubated with retinol 24 hours, vs empty vector
Protocol: FIG. 5A, FIG. 5B, FIG. 5C, FIG. 5D and FIG. 5E depict the results of introducing an expression construct containing the zebrafish ortholog of Cyp27c1 into HEK293 cells and incubating with retinol for 24 hours (vitamin A1). […] (FIG. 5D, FIG. 5E) depicts the HPLC profile of commercially obtained chemical standards A1 (FIG. 5D) and A2 (FIG. 5E).
Next, we determined if Cyp27c1 is sufficient to convert retinal to 3,4-didehydroretinal. We cloned a full-length zebrafish Cyp27c1 cDNA and a full-length human Cyp27c1 cDNA into a mammalian expression vector and expressed it in HEK293 cells. FIG. 3 confirms that the recombinant zebrafish and human Cyp27c1 are expressed in the HEK293 cells.

CC1=C(/C=C/C(C)=C/C=C/C(C)=C/CO)C(C)(C)CCC1 [retinol, all-trans retinol]
absorbance maximum (peak) [1]: 326 nm

CC1=C(/C=C/C(C)=C/C=C/C(C)=C/CO)C(C)(C)CC=C1 [3,4-didehydroretinol, all-trans 3,4-didehydroretinol]
absorbance maximum (peak) [1]: 355 nm

CC1=C(/C=C/C(C)=C/C=C/C(C)=C/C=O)C(C)(C)CCC1 [retinal, all-trans retinal]
wavelength of half-maximal absorption on the red slope of the curve [2]: 599 nm

CC1=C(/C=C/C(C)=C/C=C/C(C)=C/C=O)C(C)(C)CC=C1 [3,4-didehydroretinal]
red-shift of wavelength of half-maximal absorption ([2]; 3,4-didehydroretinal in place of retinal in AR-3): 40 nm
wavelength of half-maximal absorption on the red slope of the curve [2]: 639 nm
red-shift of action spectra (optogenetic actuators): greater than 30 nm

N[C@@H](Cc1cc(I)c(Oc2cc(I)c(O)c(I)c2)c(I)c1)C(=O)O [thyroid hormone, L-thyroxine]
HPLC profile of retinoids (adult zebrafish; thyroid hormone treated cyp27c1 null mutant zebrafish): only the presence of A1
conversion of retinal into 3,4-dehydroretinal (A1 to A2) in retinas (adult zebrafish; wild-type adult zebrafish, 300 μg/liter L-thyroxine in water, three weeks, HPLC): quantitative conversion of retinal into 3,4-dehydroretinal; also recorded: conversion of A1 to A2
Cyp27c1 transcript expression level in RPE (Cyp27c1 transcript): markedly upregulated
Opn1mw4 transcript upregulation (Opn1mw4): 4 fold
red-shift of red cone sensitivity (red single cones): fail to red-shift

B1: zebrafish Cyp27c1: cytochrome P450, family 27, subfamily C, polypeptide 1 encoded by the cyp27c1 gene from Danio rerio (protein, UniProt A8WGA0 1-540, looked up)
Cytochrome P450 27C1: MALQSTILHMARKNLLQESCRQLLIQTHGLHKSVASGSLEIAAHSQADLKEESAVSPAEEVQKAARVKSLKEMPGPSTVANLLEFFYRDGFSRIHEIQMEHAKKYGKIFKSRFGPQFVVSIADRDMVAQVLRSESATPQRGNMESWKEYRDLRGRSTGLISAEGDEWLKMRSVLRQLIMRPRDVAVFSSDVNDVVADLVKRVKTLRSQQDDSQTVLNINDLFFKYAMEGVATILYETRLGCLENEIPKMSQEYITALHLMFSSFKTTMYAGAIPKWLRPIIPKPWEEFCSSWDGLFKFSQIHVDKRLSEIKKQMEKSEEIKGGLLTHMLVTREMNLEEIYANMTEMLLAGVDTTSFTLSWSTYLLARHPTIQQQIFEEVDRVLGGRVPTGEDVPYLPLIRGLVKETLRLFPVLPGNGRVTHDDLIVGGYLIPKGTQLALCHYSTSMDEENFPRPEEFRPDRWIRKDASDRVDNFGSIPFGYGIRSCIGRRIAELEMHLALTQLLQNFHIEVSPQTTEVHAKTHGLLCPGASINLRFTDRK
formation of 3,4-didehydroretinol (A2) from retinol (HEK293 cells): significant quantities of 3,4-didehydroretinol

B2: human Cyp27c1: cytochrome P450, family 27, subfamily C, polypeptide 1 encoded by the cyp27c1 gene from Homo sapiens (protein, UniProt Q4G0S4 81-542, looked up)
Cytochrome P450 27C1: ANLAEFFCRDGFSRIHEIQQKHTREYGKIFKSHFGPQFVVSIADRDMVAQVLRAEGAAPQRANMESWREYRDLRGRATGLISAEGEQWLKMRSVLRQRILKPKDVAIYSGEVNQVIADLIKRIYLLRSQAEDGETVTNVNDLFFKYSMEGVATILYESRLGCLENSIPQLTVEYIEALELMFSMFKTSMYAGAIPRWLRPFIPKPWREFCRSWDGLFKFSQIHVDNKLRDIQYQMDRGRRVSGGLLTYLFLSQALTLQEIYANVTEMLLAGVDTTSFTLSWTVYLLARHPEVQQTVYREIVKNLGERHVPTAADVPKVPLVRALLKETLRLFPVLPGNGRVTQEDLVIGGYLIPKGTQLALCHYATSYQDENFPRAKEFRPERWLRKGDLDRVDNFGSIPFGHGVRSCIGRRIAELEIHLVVIQLLQHFEIKTSSQTNAVHAKTHGLLTPGGPIHVRFVNRK
formation of 3,4-didehydroretinol (A2) from retinol (HEK293 cells): significant quantities of 3,4-didehydroretinol
